The values that follow come from patent publication US12083101B2, “Biaryl derivatives as YAP/TAZ-TEAD protein-protein interaction inhibitors” (Novartis AG, priority 2020, dated 2024).

Molecules are shown by their SMILES.

Sequence of Avi-humanTEAD4 217-434 / Cy5 labeled humanYAP 60-100 (Q15561 217-434): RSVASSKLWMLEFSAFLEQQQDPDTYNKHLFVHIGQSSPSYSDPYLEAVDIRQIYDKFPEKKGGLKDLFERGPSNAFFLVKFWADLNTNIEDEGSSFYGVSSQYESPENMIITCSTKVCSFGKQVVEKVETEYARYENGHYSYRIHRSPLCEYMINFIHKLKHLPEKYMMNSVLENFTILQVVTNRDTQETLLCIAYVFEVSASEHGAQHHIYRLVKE

For the experiment, the target named is Avi-humanTEAD4 217-434 / Cy5 labeled humanYAP 60-100 (Homo sapiens (Human), UniProt Q15561). Nature of the experiment: TR-FRET YAP-TEAD4 in-vitro biochemical assay. Type of experiment: binding. The conditions noted are these: 1 nM Avi-humanTEAD4 217-434, 20 nM Cy5-humanYAP 60-100, 1 h room temperature. As for the experimental part:
N-terminus Cy5 labeled humanYAP^60-100 (20 nM) was then added to this preparation. Compounds were dissolved at 10 mM in 100% DMSO and serial dilutions were made in 100% DMSO. The diluted compound solutions were incubated in white 384-well plates (Greiner Bio-One) for 1 h at room temperature with the above described mix. The final DMSO concentration present in the assay was 1%. […] The IC50 values were estimated by fitting the data by nonlinear fit regression (GraphPad Prism).
(In general: TR-FRET usually uses a lanthanide donor and a delayed reading to cut background.)
In general, IC50 refers to the concentration that inhibits the measured activity by half. A higher IC50 goes with weaker potency in that assay. With `C[C@@H]1C[C@@H](NC[C@@]2(c3ccccc3)Cc3c(cc(F)c(Cl)c3-c3c(C(N)=O)ccc(OCCO)c3F)O2)C[C@H](C)O1` (atropisomer, axis not shown) [Example 65b, 2-((2S,4S)-5-chloro-2-((((2R,4s,6S)-2,6-dimethyltetrahydro-2H-pyran-4-yl)amino)methyl)-6-fluoro-2-phenyl-2,3-dihydrobenzofuran-4-yl)-3-fluoro-4-(2-hydroxyethoxy)benzamide], the IC50 came out at 455 nM.
Under `NC[C@@]1(c2ccccc2)Cc2c(cc(F)c(Cl)c2-c2c(C(N)=O)ccc(OCCC(F)F)c2F)O1` (atropisomer, axis not shown) [Example 41, 2-((2S,4S)-2-(aminomethyl)-5-chloro-6-fluoro-2-phenyl-2,3-dihydrobenzofuran-4-yl)-4-(3,3-difluoropropoxy)-3-fluorobenzamide] stands 89 nM; under `NC[C@@]1(c2ccccc2)Cc2c(cc(F)c(Cl)c2-c2c(C(N)=O)ccc(OC(F)(F)CO)c2F)O1` (atropisomer, axis not shown) [Example 36, 2-((2S,4S)-2-(aminomethyl)-5-chloro-6-fluoro-2-phenyl-2,3-dihydrobenzofuran-4-yl)-4-(1,1-difluoro-2-hydroxyethoxy)-3-fluorobenzamide], 10 nM.
`NC[C@@]1(c2ccccc2)Cc2c(ccc(Cl)c2-c2c(C(N)=O)ccc(F)c2F)O1` (atropisomer, axis not shown) [Example 9, 2-((2S,4S)-2-(aminomethyl)-5-chloro-2-phenyl-2,3-dihydrobenzofuran-4-yl)-3,4-difluorobenzamide] had an IC50 of 4 nM.
Under `Fc1cc2c(c(-c3ccccc3)c1Cl)C[C@](c1ccccc1)([C@@H]1C[C@@H](F)CN1)O2` [Example 160, (2S,4R)-2-((S)-5-chloro-6-fluoro-2,4-diphenyl-2,3-dihydrobenzofuran-2-yl)-4-fluoropyrrolidine] stands 4400 nM; under `COC(=O)[C@H]1CC[C@@H](NC[C@@]2(c3ccccc3)Cc3c(ccc(Cl)c3-c3c(C(N)=O)ccc(F)c3F)O2)CC1` (relative stereo) [Example 137a, Methyl (cis)-4-((((2S,4S)-4-(6-carbamoyl-2,3-difluorophenyl)-5-chloro-2-phenyl-2,3-dihydrobenzofuran-2-yl)methyl)amino)cyclohexane-1-carboxylate], 5 nM.
With `NC(=O)c1ccc(OC(F)F)c(F)c1-c1c(Cl)c(F)cc2c1C[C@@](CNC1CCC(CO)CC1)(c1ccccc1)O2` (single isomer, unassigned) [Example 61b] the figure was 10 nM.
With `COc1ccc(C(N)=O)c(-c2c(Cl)ccc3c2OC(CN)(c2ccccc2)C3)c1F` (single isomer, unassigned) [Example 132, 2-(2-(Aminomethyl)-6-chloro-2-phenyl-2,3-dihydrobenzofuran-7-yl)-3-fluoro-4-methoxybenzamide] the figure was 2080 nM; with `COc1ccc(C(N)=O)c(-c2c(Cl)ccc3c2[C@H](O)[C@@](CN)(c2ccccc2OC(F)(F)F)O3)c1F` (atropisomer, axis not shown) [Example 93, 2-((2S,3S,4S)-2-(Aminomethyl)-5-chloro-3-hydroxy-2-(2-(trifluoromethoxy)phenyl)-2,3-dihydrobenzofuran-4-yl)-3-fluoro-4-methoxybenzamide], 9 nM.
As to `COCCOc1ccc(C(N)=O)c(-c2c(Cl)c(F)cc3c2[C@H](C)[C@@](CN[C@H]2CC[C@@](C)(O)CC2)(c2ccccc2)O3)c1F` (atropisomer, axis not shown) [Example 116b, 2-((2S,3S,4S)-5-chloro-6-fluoro-2-((((cis)-4-hydroxy-4-methylcyclohexyl)amino)methyl)-3-methyl-2-phenyl-2,3-dihydrobenzofuran-4-yl)-3-fluoro-4-(2-methoxyethoxy)benzamide], the IC50 was determined as 1 nM.
With `NC(=O)c1ccc(OC(F)F)c(F)c1-c1c(Cl)c(F)cc2c1C[C@@](CN[C@H]1C[C@H](F)C1)(c1ccccc1)O2` (atropisomer, axis not shown) [Example 82, 2-((2S,4S)-5-chloro-6-fluoro-2-(((trans-3-fluorocyclobutyl)amino)methyl)-2-phenyl-2,3-dihydrobenzofuran-4-yl)-4-(difluoromethoxy)-3-fluorobenzamide] the figure was 119 nM; with `NC[C@]1(c2ccccc2)Oc2ccc(Cl)c(-c3c(C(N)=O)ccc(OC(F)F)c3F)c2[C@@H]1O` (atropisomer, axis not shown) [Example 87, 2-((2S,3S,4S)-2-(aminomethyl)-5-chloro-3-hydroxy-2-phenyl-2,3-dihydrobenzofuran-4-yl)-4-(difluoromethoxy)-3-fluorobenzamide], 30 nM.
With `CO[C@H]1CC[C@H](NC[C@]2(c3ccccc3)Oc3cc(F)c(Cl)c(-c4c(C(N)=O)ccc(OC(F)F)c4F)c3[C@@H]2O)CC1` (relative stereo) [Example 136b, 2-((2S,3S,4S)-5-chloro-6-fluoro-3-hydroxy-2-((((trans)-4-methoxycyclohexyl)amino)methyl)-2-phenyl-2,3-dihydrobenzofuran-4-yl)-4-(difluoromethoxy)-3-fluorobenzamide] the figure was 7 nM.
With `CS(=O)(=O)NC1CCC(NC[C@@]2(c3ccccc3)Cc3c(cc(F)c(Cl)c3-c3c(C(N)=O)ccc(OC(F)F)c3F)O2)CC1` (single isomer, unassigned) [Example 57b] the figure was 6 nM; with `COc1ccc(C(N)=O)c(-c2c(Cl)ccc3c2[C@H](O)[C@@](CN[C@H]2CC[C@@H](O)CC2)(c2ccccn2)O3)c1F` (relative stereo) [Example 95b, 2-((2R,3S,4S)-5-chloro-3-hydroxy-2-((((cis)-4-hydroxycyclohexyl)amino)methyl)-2-(pyridin-2-yl)-2,3-dihydrobenzofuran-4-yl)-3-fluoro-4-methoxybenzamide], 7 nM.
`CNC(=O)c1cnc(OCCO)c(F)c1-c1c(Cl)c(F)cc2c1C[C@@](CN)(c1ccccc1)O2` (atropisomer, axis not shown) [Example 45, 4-((2S,4S)-2-(Aminomethyl)-5-chloro-6-fluoro-2-phenyl-2,3-dihydrobenzofuran-4-yl)-5-fluoro-6-(2-hydroxyethoxy)-N-methylnicotinamide] showed an IC50 of 10 nM.
Under `CCc1ccc(C(N)=O)c(-c2c(Cl)c(F)cc3c2C[C@@](CN[C@H]2CC[C@](C)(O)CC2)(c2ccccc2)O3)c1F` (atropisomer, axis not shown) [Example 68a, 2-((2S,4S)-5-chloro-6-fluoro-2-((((trans)-4-hydroxy-4-methylcyclohexyl)amino)methyl)-2-phenyl-2,3-dihydrobenzofuran-4-yl)-4-ethyl-3-fluorobenzamide] stands 10 nM; under `CO[C@H]1CC[C@@H](NC[C@]2(c3ccccc3)Oc3cc(F)c(Cl)c(-c4c(C(N)=O)ccc(OC(F)F)c4F)c3[C@@H]2O)CC1` (relative stereo) [Example 136a, 2-((2S,3S,4S)-5-Chloro-6-fluoro-3-hydroxy-2-((((cis)-4-methoxycyclohexyl)amino)methyl)-2-phenyl-2,3-dihydrobenzofuran-4-yl)-4-(difluoromethoxy)-3-fluorobenzamide], 7 nM; under `COc1ccc(C(N)=O)c(-c2c(Cl)ccc3c2[C@H](O)[C@@](CN[C@H]2CC[C@H](O)CC2)(c2ccccn2)O3)c1F` (relative stereo) [Example 95a, 2-((2R,3S,4S)-5-Chloro-3-hydroxy-2-((((trans)-4-hydroxycyclohexyl)amino)methyl)-2-(pyridin-2-yl)-2,3-dihydrobenzofuran-4-yl)-3-fluoro-4-methoxybenzamide], 8 nM.
With `COc1ccc(C(=O)NC2CC2)c(-c2c(Cl)ccc3c2C[C@@](CN)(c2ccccc2)O3)c1F` (atropisomer, axis not shown) [Example 23, 2-((2S,4S)-2-(aminomethyl)-5-chloro-2-phenyl-2,3-dihydrobenzofuran-4-yl)-N-cyclopropyl-3-fluoro-4-methoxybenzamide] the figure was 9 nM; with `NC(=O)c1ccc(OC(F)F)c(F)c1-c1c(Cl)c(F)cc2c1C[C@@](CNCCN1CCCC1=O)(c1ccccc1)O2` (atropisomer, axis not shown) [Example 78, 2-((2S,4S)-5-chloro-6-fluoro-2-(((2-(2-oxopyrrolidin-1-yl)ethyl)amino)methyl)-2-phenyl-2,3-dihydrobenzofuran-4-yl)-4-(difluoromethoxy)-3-fluorobenzamide], 160 nM; with `NC(=O)c1ccc(OC(F)F)c(F)c1-c1c(Cl)c(F)cc2c1C[C@@](CNC1CCC(CO)CC1)(c1ccccc1)O2` (single isomer, unassigned) [Example 61a], 8 nM.
With `CC(=O)N1CCC(NC[C@@]2(c3ccccc3)Cc3c(cc(F)c(Cl)c3-c3c(C(N)=O)ccc(OC(F)F)c3F)O2)CC1` (atropisomer, axis not shown) [Example 70, 2-((2S,4S)-2-(((1-acetylpiperidin-4-yl)amino)methyl)-5-chloro-6-fluoro-2-phenyl-2,3-dihydrobenzofuran-4-yl)-4-(difluoromethoxy)-3-fluorobenzamide] the figure was 20 nM.
As to `CN(C)C(=O)CN1CCC(NC[C@@]2(c3ccccc3)Cc3c(cc(F)c(Cl)c3-c3c(C(N)=O)ccc(OC(F)F)c3F)O2)CC1` (atropisomer, axis not shown) [Example 60, 2-((2S,4S)-5-chloro-2-(((1-(2-(dimethylamino)-2-oxoethyl)piperidin-4-yl)amino)methyl)-6-fluoro-2-phenyl-2,3-dihydrobenzofuran-4-yl)-4-(difluoromethoxy)-3-fluorobenzamide], the midpoint of inhibition, the IC50, lay at 20 nM.
